Data: patent publication US9719981B2, “RAC1 inhibitors for the treatment of alport glomerular disease” (Father Flanagan's Boys' Home, priority 2012, dated 2017)

Experiments:
glomerular injury = conditions: lipopolysaccharide or anti-GBM antibody administration; cited from earlier work
FAK [1] = assay: pFAK397 western blot in primary mesangial cells with TAE226; type: cell-based, mouse; conditions: 0.5 and 1.0 μM TAE226, five hours
Description: Primary Mesangial Cells were derived and characterized as previously described (Cosgrove et al., 2008, Am J Pathol; 172: 761-773). Three independent Transwell Migration Assays were performed using 0.5 μM TAE226 as previously described. For pFAK Western Blot^397, cells were maintained on 1% FCS-containing media for two days, overnight in 0.1% BSA (Fraction V, Roche Diagnostics, Mannheim, Germany) and TAE226 added to 0.5 and 1.0 μM. After five hours protein was collected in M-PER™ (Thermo Scientific, Rockford, Ill.) containing Protease Inhibitor Cocktail P8340 at 1:100 (Sigma, St. Louis, Mo.), 5 mM Sodium Fluoride (Sigma), and 2 mM Sodium Orthovanadate (Sigma) and Western Blots run as described below.
(§1) Immunoblotting. Ten to fifteen micrograms, of cellular protein, was resolved in a 10% SDS-PAGE and then electrotransfered to PVDF membrane. The membranes were cut in half and the upper half (250 kDa to 75 kDa) used for pFAK/tFAK immunoblotting while the bottom half used for β-actin immunoblotting (loading control). Conditions for pFAK detection: the membrane was blocked in milk blocking solution (5% milk containing 0.2% Tween-20 in PBS) for 1 hour at room temperature with constant shaking and incubated overnight at 4° C. with anti-pFAK 1:1,000 in BSA blocking solution (1% BSA containing 0.2% Tween-20 in PBS). […]

[2] = system: primary cultured mesangial cells; assay: Transwell Migration Assay of primary mesangial cells with TAE226; type: cell-based, mouse; conditions: 0.5 μM TAE226; relative to untreated cells
Description: MES Migration (insert). Transwell cell migration assays were performed as described by Daniel et al. (Daniel et al., 2012, Lab Invest; 92(6): 812-26) with some modifications. 8 micron, 24-well plate control inserts (BD Bioscience, Bedford, Mass.) were coated overnight at 4° C. with 100 μl of 0.1% gelatin/PBS then washed 1× with PBS. MES cultures were incubated in 1% FCS overnight, then 0.05% BSA-containing media for at least 8 hours, washed 1× with PBS and carefully tryspinized to ensure a single cell suspension and limited “clumping” of cells. After serum-neutralization and subsequent centrifugation, ˜100,000 cells were resuspended in 1.5 mls of 0.05% BSA media containing activators/inhibitors. The wells of a 24-well plate were filled with 0.75 mls of 10% FCS-containing media plus activators/inhibitors (excluding 0.05% BSA control well). 0.5 ml of cell-suspension was loaded into the gelatin-coated insert and the insert placed in a well. Wells were visually inspected for bubbles beneath insert and equal distribution of cell-suspension. Cells were allowed to migrate overnight (˜18 hrs). […] Inserts were air dried and counted at 100× magnification. Five fields were counted on each insert including one center and four periphery areas. Data was expressed as relative to 10% FCS control well (set equal to one). […]

FAK [3] = assay: pFAK397 western blot in cultured podocytes -/+ TAE226; type: cell-based, mouse; conditions: 20 μM TAE226, podocytes on placental laminin
Description: Basal Lamina and −/+ TAE226 pFAK^397 Western Blots. 10 day differentiated GEC's were cultured in 0.5% FCS for 2 days and plated onto tissue culture dishes previously coated with 50 μg/ml Collagen Type 1 Rat Tail (BD Biosciences) and 2 μg/cm^2 Placental Laminin (Sigma) in 0.1% BSA containing media. For Basal Lamina experiment, additional dishes were coated with Collagen Type 1 and 1.25 μg/cm^2 EHS Laminin (BD Biosciences) or […] Merosin (Chemicon, Temecula Calif.). For −/+ TAE266 experiment, 20 μM TAE226 was included in the media. Protein was collected 15 hours later in M-PER (Thermo Scientific) as above and Western Blot run as described below.
as §1

SMILES: CNC(=O)c1ccccc1Nc1nc(Nc2ccc(N3CCOCC3)cc2OC)ncc1Cl [TAE226]
- Protection against glomerular injury (glomerular injury): protect against glomerular injury
- pFAK activation in mesangial cells (FAK [1]): blocked pFAK activation in a dose-dependent manner
- Cell migratory potential of mesangial cells [2]: significantly reduced
- Activation state of FAK (pFAK397) in cultured podocytes (FAK [3]): reduced
